From the NIST ThermoML archive (doi:10.1021/je034076x)
Numbers after ± are expanded uncertainties.

Conditions: 101.33 kPa, Liquid; for viscosity: Capillary tube (Ostwald / Ubbelohde) method; for speed of sound: Pulse-echo method; for mass density: Vibrating tube method

Compound `OCC(F)(F)F` [2,2,2-trifluoroethanol] has a viscosity (283.15 K) of 2.694 ± 0.02 mPa·s, a speed of sound (283.15 K) of 872.7 ± 0.5 m/s and a mass density (283.15 K) of 1408.1 ± 0.3 kg/m3. It also gave a viscosity (298.15 K) of 1.755 ± 0.013 mPa·s, a speed of sound (298.15 K) of 833.2 ± 0.5 m/s and a mass density (298.15 K) of 1382.56 ± 0.28 kg/m3. The viscosity (313.15 K) was 1.208 ± 0.0095 mPa·s, the speed of sound (313.15 K) was 793.3 ± 0.5 m/s and the mass density (313.15 K) was 1356.89 ± 0.27 kg/m3.

`C1CCOC1` [tetrahydrofuran] showed a viscosity (283.15 K) of 0.5438 ± 0.0055 mPa·s, a speed of sound (283.15 K) of 1348.8 ± 1.2 m/s and a mass density (283.15 K) of 898.62 ± 0.47 kg/m3. The viscosity (298.15 K) was 0.4645 ± 0.0048 mPa·s, the speed of sound (298.15 K) was 1279 ± 1.2 m/s and the mass density (298.15 K) was 882.18 ± 0.46 kg/m3. The viscosity (313.15 K) was 0.3992 ± 0.0043 mPa·s, the speed of sound (313.15 K) was 1204.8 ± 1.2 m/s and the mass density (313.15 K) was 865.95 ± 0.45 kg/m3.
